# Measurements published in PubChem BioAssay AID248 (DTP/NCI, 2004).
# Values joined by “and” are separate entries in the source; they are usually repeats but may differ in a detail not shown here. Equal values may be shown once. Toxic doses and inconclusive results are not listed.
# Tested on: L1210 leukemia ip in BDF1 mice, survival T/C
# Test: NCI In Vivo Anticancer Drug Screen. Data for tumor model L1210 Leukemia (intraperitoneal) in B6D2F1 (BDF1) mice
# Conditions: endpoint: mean survival time, higher = longer survival
# Procedure, shortened: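 Mice bearing the transplanted tumor received compound or vehicle. Survival of the treated group was divided by that of the vehicle-treated control group to give the ratio.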
smiles,measurement,setting,value
CN(C)CC(=O)c1ccc(O)c(O)c1,T/C,"dose: 29.5 mg/kg/injection, schedule: Q#A X Z (ip), vehicle: saline",123 % of control
same,T/C,"dose: 44.5 mg/kg/injection, schedule: Q#A X Z (ip), vehicle: saline",124 % of control
same,T/C,"dose: 50.0 mg/kg/injection, schedule: Q01DX Z (ip), vehicle: saline",109 % of control
same,T/C,"dose: 75.0 mg/kg/injection, schedule: Q01DX010 (ip), vehicle: saline",112 % of control and 114 % of control
same,T/C,"dose: 75.0 mg/kg/injection, schedule: Q01DX Z (ip), vehicle: carboxymethylcellulose (CMC)",110 % of control
same,T/C,"dose: 75.0 mg/kg/injection, schedule: Q01DX Z (ip), vehicle: clinical formulation",110 % of control and 113 % of control
same,T/C,"dose: 75.0 mg/kg/injection, schedule: Q01DX Z (ip), vehicle: water",112 % of control
same,T/C,"dose: 100.0 mg/kg/injection, schedule: Q01DX Z (ip), vehicle: saline",116 % of control
same,T/C,"dose: 133.0 mg/kg/injection, schedule: Q01DX Z (ip), vehicle: saline",124 % of control
same,T/C,"dose: 150.0 mg/kg/injection, schedule: Q01DX Z (ip), vehicle: carboxymethylcellulose (CMC)",112 % of control
same,T/C,"dose: 150.0 mg/kg/injection, schedule: Q01DX Z (ip), vehicle: clinical formulation",116 % of control
same,T/C,"dose: 150.0 mg/kg/injection, schedule: Q01DX Z (ip), vehicle: water",124 % of control
same,T/C,"dose: 150.0 mg/kg/injection, schedule: Q#A X Z (ip), vehicle: saline",118 % of control
same,T/C,"dose: 200.0 mg/kg/injection, schedule: Q01DX007 (iv), vehicle: saline",104 % of control
same,T/C,"dose: 200.0 mg/kg/injection, schedule: Q01DX Z (sc), vehicle: saline",108 % of control
same,T/C,"dose: 200.0 mg/kg/injection, schedule: Q## X Z (ip), vehicle: saline",100 % of control
same,T/C,"dose: 266.0 mg/kg/injection, schedule: Q03DX Z (ip), vehicle: saline",123 % of control
same,T/C,"dose: 300.0 mg/kg/injection, schedule: Q01DX007 (iv), vehicle: saline",95 % of control
same,T/C,"dose: 300.0 mg/kg/injection, schedule: Q01DX Z (ip), vehicle: clinical formulation",118 % of control
same,T/C,"dose: 300.0 mg/kg/injection, schedule: Q01DX Z (ip), vehicle: water",116 % of control
same,T/C,"dose: 300.0 mg/kg/injection, schedule: Q01DX Z (sc), vehicle: saline",108 % of control
same,T/C,"dose: 300.0 mg/kg/injection, schedule: Q## X Z (ip), vehicle: saline",100 % of control
same,T/C,"dose: 400.0 mg/kg/injection, schedule: Q03DX Z (ip), vehicle: saline",117 % of control
same,T/C,"dose: 450.0 mg/kg/injection, schedule: Q01DX Z (ip), vehicle: saline",153 % of control
same,T/C,"dose: 450.0 mg/kg/injection, schedule: Q01DX Z (sc), vehicle: saline",103 % of control
same,T/C,"dose: 450.0 mg/kg/injection, schedule: Q## X Z (ip), vehicle: saline",100 % of control
same,T/C,"dose: 532.0 mg/kg/injection, schedule: Q01DX Z (oral), vehicle: saline",94 % of control
same,T/C,"dose: 600.0 mg/kg/injection, schedule: Q03DX Z (ip), vehicle: saline",102 % of control and 112 % of control (2×)
same,T/C,"dose: 622.0 mg/kg/injection, schedule: Q07DX Z (ip), vehicle: saline",115 % of control
same,T/C,"dose: 675.0 mg/kg/injection, schedule: Q01DX Z (sc), vehicle: saline",116 % of control
same,T/C,"dose: 675.0 mg/kg/injection, schedule: Q## X Z (ip), vehicle: saline",102 % of control
same,T/C,"dose: 800.0 mg/kg/injection, schedule: Q01DX Z (ip), vehicle: carboxymethylcellulose (CMC)",102 % of control
same,T/C,"dose: 800.0 mg/kg/injection, schedule: Q01DX Z (oral), vehicle: saline",101 % of control and 88 % of control
same,T/C,"dose: 933.0 mg/kg/injection, schedule: Q07DX Z (ip), vehicle: saline",104 % of control
same,T/C,"dose: 1200.0 mg/kg/injection, schedule: Q01DX Z (oral), vehicle: saline",102 % of control and 106 % of control
same,T/C,"dose: 1400.0 mg/kg/injection, schedule: Q07DX Z (ip), vehicle: saline",113 % of control
same,T/C,"dose: 1800.0 mg/kg/injection, schedule: Q01DX Z (oral), vehicle: saline",100 % of control
COc1ccc(C)cc1NC(=O)Nc1cccc(C(F)(F)F)c1,T/C,"dose: 100.0 mg/kg/injection, schedule: Q01DX009 (ip), vehicle: Klucel (hydroxypropylcellulose) (HPC)",92 % of control
same,T/C,"dose: 200.0 mg/kg/injection, schedule: Q01DX009 (ip), vehicle: Klucel (hydroxypropylcellulose) (HPC)",86 % of control
same,T/C,"dose: 400.0 mg/kg/injection, schedule: Q01DX009 (ip), vehicle: Klucel (hydroxypropylcellulose) (HPC)",95 % of control
C1CC2CCC1CNC2,T/C,"dose: 50.0 mg/kg/injection, schedule: Q04DX003 (ip), vehicle: saline",104 % of control
same,T/C,"dose: 100.0 mg/kg/injection, schedule: Q04DX003 (ip), vehicle: saline",106 % of control
C=CS(=O)CCCCCCC (stereo not given),T/C,"dose: 12.5 mg/kg/injection, schedule: Q04DX002 (ip), vehicle: saline with Tween-80",106 % of control
same,T/C,"dose: 25.0 mg/kg/injection, schedule: Q04DX002 (ip), vehicle: saline with Tween-80",103 % of control
same,T/C,"dose: 50.0 mg/kg/injection, schedule: Q04DX002 (ip), vehicle: saline with Tween-80",109 % of control
